Laboratory results from DBAASP.
≈ marks a conversion by molar mass, not a printed value.

Legend:
Experiment in all cases: ≥ marks a high value that may be exact or a test limit, other limits are often not marked, values filed in µg/mL are converted to µM
[1] = test system: Staphylococcus aureus MRSA-15
[2] = test system: Staphylococcus aureus RN4220
Escherichia coli K-12 = test system: Escherichia coli K-12
[3] = test system: Salmonella typhimurium SL1344
[4] = test system: Klebsiella pneumoniae ATCC 700603
[5] = test system: Staphylococcus aureus NCTC 12493
[6] = test system: Staphylococcus aureus Q14-0320
[7] = test system: Klebsiella pneumoniae NCTC 13442
[8] = test system: Campylobacter jejuni NCTC 11351
[9] = test system: Pseudomonas aeruginosa Q14-0890
[10] = test system: Pseudomonas aeruginosa PAO1
[11] = test system: Pseudomonas aeruginosa Q14-0208
[12] = test system: Acinetobacter baumannii Q12-0809
[13] = test system: Staphylococcus aureus ATCC 29213
[14] = test system: Staphylococcus aureus Q14-0325
[15] = test system: Enterococcus faecalis JH-2-2
[16] = test system: Pseudomonas aeruginosa ATCC 27853
[17] = test system: Klebsiella pneumoniae Q14-0095
[18] = test system: Acinetobacter baumannii Q12-0867
Escherichia coli = test system: Escherichia coli
[19] = test system: Listeria monocytogenes NCTC 11994
[20] = test system: Acinetobacter baumannii Q13-0717
[21] = test system: Pseudomonas aeruginosa Q12-0581
[22] = test system: Pseudomonas aeruginosa Q12-0535
Campylobacter jejuni = test system: Campylobacter jejuni
[23] = test system: Listeria monocytogenes KCTC 3710
[24] = test system: Bacillus subtilis KCTC 1998
[25] = test system: Staphylococcus aureus ATCC 25923
[26] = test system: Pseudomonas aeruginosa 4007
[27] = test system: Escherichia coli CCARM 1238
[28] = test system: Trichosporon beigelii KCTC 7707
[29] = test system: Escherichia coli CCARM 1229
[30] = test system: Pseudomonas aeruginosa 4891
[31] = test system: Staphylococcus aureus CCARM 3518
[32] = test system: Candida albicans KCTC 7270
[33] = test system: Escherichia coli ATCC 25922
[34] = test system: Staphylococcus aureus CCARM 3090
[35] = test system: Salmonella typhimurium KCTC 1926
[36] = test system: Escherichia coli CGMCC 1.8732
[37] = test system: Klebsiella pneumoniae CGMCC 1.1736
[38] = test system: Staphylococcus epidermidis CGMCC 1.4260
[39] = test system: Bacillus subtilis CGMCC 1.3376
[40] = test system: Pseudomonas aeruginosa CGMCC 1.2421
[41] = test system: Staphylococcus aureus CGMCC 1.8721
[42] = test system: Staphylococcus aureus 5118
[43] = test system: Staphylococcus aureus E4049
[44] = test system: Staphylococcus aureus ATCC 9144
Candida krusei CBS 573 = test system: Candida krusei CBS 573
[45] = test system: Candida albicans ATCC 10231
[46] = test system: Candida parapsilosis CBS 604
[47] = test system: Saccharomyces cerevisiae SZMC 0644

Question: How did the MIC [1] turn out when `CC[C@H](C)[C@H](NC(=O)[C@H](Cc1ccccc1)NC(=O)[C@H](Cc1ccc(O)cc1)NC(=O)[C@@H](NC(=O)[C@H](CCCCN)NC(=O)[C@H](CC(C)C)NC(=O)[C@@H](NC(=O)[C@H](CCCCN)NC(=O)[C@@H](NC(=O)[C@@H](N)CO)[C@@H](C)CC)[C@@H](C)CC)[C@@H](C)CC)C(=O)N[C@@H](CCC(N)=O)C(=O)NCC(=O)N[C@@H](CCCCN)C(=O)N[C@@H](CCCN=C(N)N)C(=O)N[C@@H](Cc1cnc[nH]1)C(=O)N[C@@H](Cc1c[nH]c2ccccc12)C(=O)N[C@@H](CO)C(=O)N[C@@H](Cc1ccccc1)C(=O)O` [SIKILKIYFIQGKRHWSF] was run?
Answer: ≥ 110 µM

Question: And the MIC [2]?
Answer: ≥ 113 µM

Question: What about the MIC (Escherichia coli K-12) of the same molecule?
Answer: ≥ 113 µM

Question: And the MIC [3]?
Answer: ≥ 226 µM

Question: What about the MIC [4] of the same molecule?
Answer: 56.5 µM (≈ 128 µg/mL)

Question: What about the MIC [5] of the same molecule?
Answer: 14.1 µM (≈ 32 µg/mL)

Question: And the MIC [6]?
Answer: 28.3 µM (≈ 64 µg/mL)

Question: And the MIC [7]?
Answer: ≥ 56.5 µM

Question: And the MIC [8]?
Answer: ≥ 56.5 µM

Question: What about the MIC [9] of the same molecule?
Answer: 7.06 µM (≈ 16 µg/mL)

Question: And the MIC [10]?
Answer: 226 µM (≈ 512 µg/mL)

Question: And the MIC [11]?
Answer: 28.3 µM (≈ 64 µg/mL)

Question: And the MIC [12]?
Answer: ≥ 56.5 µM

Question: What about the MIC [13] of the same molecule?
Answer: 14.1 µM (≈ 32 µg/mL)

Question: And the MIC [14]?
Answer: 14.1 µM (≈ 32 µg/mL)

Question: And the MIC [15]?
Answer: ≥ 113 µM

Question: And the MIC [16]?
Answer: > 56.5 µM

Question: And the MIC [17]?
Answer: ≥ 56.5 µM

Question: And the MIC [18]?
Answer: 14.1 µM (≈ 32 µg/mL)

Question: And the MIC (Escherichia coli)?
Answer: > 56.5 µM

Question: What about the MIC [19] of the same molecule?
Answer: ≥ 113 µM

Question: What about the MIC [20] of the same molecule?
Answer: 28.3 µM (≈ 64 µg/mL)

Question: What about the MIC [21] of the same molecule?
Answer: 14.1 µM (≈ 32 µg/mL)

Question: And the MIC [22]?
Answer: ≥ 56.5 µM

Question: What about the MIC (Campylobacter jejuni) of the same molecule?
Answer: ≥ 56.5 µM

Question: What does the source list for `CC[C@H](C)[C@H](NC(=O)CNC(=O)[C@H](CCC(N)=O)NC(=O)[C@H](Cc1ccccc1)NC(=O)[C@@H](NC(=O)[C@H](CCCCN)NC(=O)[C@H](CCCCN)NC(=O)[C@H](CC(C)C)NC(=O)[C@H](C)NC(=O)[C@H](CC(N)=O)NC(=O)[C@H](CC(C)C)NC(=O)[C@@H](N)Cc1c[nH]c2ccccc12)C(C)C)C(=O)N[C@@H](Cc1cnc[nH]1)C(=O)N[C@@H](CCC(=O)O)C(=O)N[C@@H](C)C(=O)N[C@H](C(=O)N[C@@H](CCCCN)C(=O)N[C@@H](CC(C)C)C(=O)N[C@H](C(=O)N[C@@H](Cc1c[nH]c2ccccc12)C(=O)N[C@@H](CC(N)=O)C(=O)N[C@@H](Cc1cnc[nH]1)C(=O)N[C@H](C(=O)N[C@@H](CCC(N)=O)C(N)=O)C(C)C)[C@@H](C)CC)[C@@H](C)CC` [WLNALKKVFQGIHEAIKLIWNHVQ]?
Answer: MIC [23]: 8 µM (≈ 23.1 µg/mL); MIC [24]: 4 µM (≈ 11.5 µg/mL); MIC [25]: 4 µM (≈ 11.5 µg/mL); MIC [26]: 2 µM (≈ 5.77 µg/mL); MIC [27]: 2 µM (≈ 5.77 µg/mL); MIC [28]: ≥ 32 µM; MIC [29]: 2 µM (≈ 5.77 µg/mL); MIC [30]: 4 µM (≈ 11.5 µg/mL); MIC [31]: 4 µM (≈ 11.5 µg/mL); MIC [32]: ≥ 32 µM; MIC [16]: 2 µM (≈ 5.77 µg/mL); MIC [33]: 2 µM (≈ 5.77 µg/mL); MIC [34]: 4 µM (≈ 11.5 µg/mL); MIC [35]: 2 µM (≈ 5.77 µg/mL)

Question: `CC[C@H](C)[C@H](NC(=O)[C@H](C)N)C(=O)NCC(=O)N[C@@H](CO)C(=O)N[C@H](C(=O)N[C@@H](CC(C)C)C(=O)NCC(=O)N[C@@H](C)C(=O)N[C@@H](CC(C)C)C(=O)N[C@@H](C)C(=O)N[C@@H](CCCCN)C(=O)NCC(=O)N[C@@H](CC(C)C)C(=O)N1CCC[C@H]1C(=O)N[C@H](C(=O)N[C@@H](CC(C)C)C(=O)N[C@@H](CCCCN)C(=O)N[C@@H](CO)C(=O)N[C@@H](Cc1c[nH]c2ccccc12)C(=O)N[C@H](C(=O)N[C@@H](CCCCN)C(=O)N[C@@H](CC(N)=O)C(=O)N[C@@H](CCCN=C(N)N)C(N)=O)[C@@H](C)CC)[C@@H](C)O)[C@@H](C)CC` [AIGSILGALAKGLPTLKSWIKNR] was tested. Which MIC [36] did it give?
Answer: 25 µM (≈ 60.2 µg/mL)

Question: And the MIC [37]?
Answer: ≥ 50 µM

Question: What about the MIC [38] of the same molecule?
Answer: 12.5 µM (≈ 30.1 µg/mL)

Question: What about the MIC [39] of the same molecule?
Answer: 6.25 µM (≈ 15 µg/mL)

Question: And the MIC [40]?
Answer: 25 µM (≈ 60.2 µg/mL)

Question: What about the MIC [41] of the same molecule?
Answer: ≥ 50 µM

Question: How did the MIC [42] turn out when `CSCC[C@H](NC(=O)[C@H](C)NC(=O)[C@H](C)NC(=O)CNC(=O)[C@H](CCCN=C(N)N)NC(=O)[C@H](CC(=O)O)NC(=O)[C@@H](N)CC(=O)O)C(=O)N[C@@H](Cc1ccccc1)C(=O)N[C@@H](C)C(=O)N[C@H](C(=O)N[C@@H](CC(C)C)C(=O)N[C@@H](Cc1ccccc1)C(=O)N[C@@H](CC(N)=O)C(=O)N[C@@H](C)C(=O)N[C@@H](Cc1ccccc1)C(=O)N[C@@H](CO)C(=O)N[C@@H](CO)C(=O)N[C@@H](CC(C)C)C(=O)N[C@@H](CC(C)C)C(=O)N[C@@H](CCC(=O)O)C(=O)O)C(C)C` [DDRGAAMFAVLFNAFSSLLE] was run?
Answer: 2.3 µM (≈ 5 µg/mL)

Question: And the MIC [43]?
Answer: 7.82 µM (≈ 17 µg/mL)

Question: What about the MIC [44] of the same molecule?
Answer: ≥ 280 µM

Question: With `NCCCC[C@H](NC(=O)CNC(=O)[C@H](CCCCN)NC(=O)[C@H](CC(N)=O)NC(=O)[C@@H]1CSSC[C@H](N)C(=O)N1)C(=O)N[C@@H](CC(N)=O)C(=O)N[C@@H](CCCCN)C(=O)NCC(=O)N[C@@H](CO)C(=O)N[C@@H](Cc1cnc[nH]1)C(=O)O` [CCNKGKNKGSH] as the molecule, how does the MIC (Candida krusei CBS 573) read?
Answer: ≥ 42.5 µM

Question: What about the MIC [45] of the same molecule?
Answer: 42.5 µM (≈ 49.9 µg/mL)

Question: What about the MIC [46] of the same molecule?
Answer: ≥ 42.5 µM

Question: What about the MIC [47] of the same molecule?
Answer: ≥ 42.5 µM
